Results as given in patent US20100144737A1, “METHODS FOR INHIBITING T HELPER CELL DIFFERENTIATION” (FibroGen, Inc., priority 2008, published 2010).

Experiments:
[1] = system: naïve T helper cells; experiment: Th1 cell differentiation: IFN-γ secretion after second and third TCR stimulation following washout; assay type: cell-based, human; settings: another series, first TCR stimulation six days with IL-12, FIG. 8
Experimental: The effectiveness of compounds of the present invention at reducing Th1 differentiation was examined as follows. Th1 differentiation was induced by culturing anti-CD3 stimulated T cells in the presence of exogenous IL-12. Human cord blood naive T helper cells (AllCells LLC, Emeryville, Calif.) were stimulated (i.e., T cell receptor (TCR) stimulation) by seeding into 96-well culture dishes coated with 5 μg/ml anti-CD3 antibody (clone UCHT1, R&D Systems, Minneapolis, Minn.), and 5 μg/ml anti-CD28 antibody (clone ANC28.1/D10, Ancell Corporation, Bayport, Minn.), and cultured at 37° C., 5% CO2 in RPMI-1640 (Mediatech Inc., Hemdon, Va.) containing 1% FBS, 1 U/ml penicillin-1 μg/ml streptomycin (Invitrogen Corporation, Carlsbad, Calif.), and 50 U/ml IL-2 (Roche Diagnostics Corporation, Indianapolis, Ind.). At time of seeding, cells were cultured with media alone or with media containing 2 ng/ml IL-12 and 10 μg/ml anti-IL-4 to induce Th1 cell differentiation. […]
The cells were then collected, washed twice with RPMI-1640 media containing 1% FBS, and counted before equal numbers of cells per well were re-stimulated (second T cell receptor (TCR) stimulation following washout of all prior treatments) by re-seeding the cells into 96-well culture dishes coated with 5 μg/ml anti-CD3 antibody and 5 μg/ml anti-CD28 antibody. […] After 24 hours the conditioned media from the cells was collected and analyzed for IFN-γ levels using a MS2400 Tissue Culture Kit (MesoScale Technologies, Gaithersburg, Md.) according to the manufacturer's instructions.
Thirteen days after the second TCR stimulation described above, the cells were collected, washed twice with RPMI-1640 media containing 1% FBS, and counted before equal numbers of cells per well were stimulated a third time (third TCR stimulation) by re-seeding into 96-well culture dishes coated with 5 μg/ml anti-CD3 antibody and 5 μg/ml anti-CD28 antibody. […]
In another series of experiments, the effectiveness of compounds of the present invention at reducing Th1 differentiation was determined. […]

[2] = system: IL12Rβ2, IL18R1, and IL18RAP gene expression in T helper cells; experiment: IL-12-induced gene expression in T helper cells (quantitative RT-PCR); assay type: cell-based, human; settings: TCR-stimulated T helper cells
Experimental: The effect of compounds and methods of the present invention on IL-12-induced gene expression in T helper cells was evaluated as follows. For these studies, analyses were performed to examine the effect of compounds of the present invention on expression of three genes induced by IL-12 in T helper cells: IL12Rβ2, IL18R1, and IL18RAP. (See, e.g., Saremeva et al. (2000) J hnmunol 165:1933-1938; Rogge et al. (1997) J Exp Med 185:825-831; and Nakahira et al. (2001) J Inmunol 167:1306-1312.)
Human cord blood naive T helper cells (AllCells LLC, Emeryville, Calif.) were stimulated (i.e., T cell receptor (TCR) stimulation) by seeding into 96-well culture dishes coated with 5 μg/ml anti-CD3 antibody (clone UCHT1, R&D Systems, Minneapolis, Minn.), and 5 μg/ml anti-CD28 antibody (clone ANC28.1/D10, Ancell Corporation, Bayport, Minn.), and cultured at 37° C., 5% CO2 in RPMI-1640 (Mediatech Inc., Herndon, Va.) containing 1% FBS, 1 U/ml penicillin-1 μg/ml streptomycin (Invitrogen Corporation, Carlsbad, California), and 50 U/ml IL-2 (Roche Diagnostics Corporation, Indianapolis, Ind.). At time of seeding, cells were cultured with media alone or with media containing 2 ng/ml IL-12 (R&D Systems, Minneapolis, Minn.) (to stimulate differentiation of the T helper cells into Th1 cells) and 10 μg/ml anti-IL-4 antibody (R&D Systems, Minneapolis, Minn.) (to block differentiation of the T helper cells into Th2 cells). Compound B or 1% DMSO (Veh) was added to the existing culture media and the cells cultured for an additional six days.
The cells were then lysed using Cell-to-Signal lysis buffer (Applied Biosystems, Foster City, Calif.) according to the manufacturer's instructions. The cell lysates were diluted with RNAse-free and DNAse-free water and used as templates in quantitative one-step duplex RT-PCR reactions using QuantiTect Multiplex RT-PCR Kit reagents (Qiagen Inc., Valencia, Calif.) and Taqman primers and probes (Applied Biosystems, Foster City, Calif.) as follows: IL18RAP Taqman primer/probe, catalog no. HS00187256M1; IL-12Rβ2 Taqman primer/probe, catalog no. HS00155486M1; EL18R1 Taqman primer/probe, catalog no. HS00175381M1; and TBET Taqman primer/probe, catalog no. HS00203436M1. RT-PCR reactions were performed according to the manufacturers' instructions. Changes in gene expression of IL12Rβ2, IL18R1, and IL18RAP following IL-12 addition in each sample were normalized relative to 18s ribosomal RNA gene expression measured in the same sample.

[3] = absence of IL-12, six days, normalized to 18s ribosomal RNA

Compound	IFN-γ secretion following the second TCR stimulation [1]	gene expression of IL12Rβ2 [2, 3]	gene expression of IL18R1 [2, 3]	gene expression of IL18RAP [2, 3]	IL-12-mediated increase in IL12Rβ2 gene expression ([2]; presence of IL-12, six days)	IL-12-mediated increase in IL18R1 gene expression ([2]; presence of IL-12, six days)	IL-12-mediated increase in IL18RAP gene expression ([2]; presence of IL-12, six days)
Cc1ccc(Cl)c2cnc(C(=O)NCC(=O)O)c(O)c12 [Compound D, [(8-Chloro-4-hydroxy-5-methyl-isoquinoline-3-carbonyl)-amino]-acetic acid]	reduced IFN-γ secretion	–	–	–	–	–	–
O=C(O)CNC(=O)c1ncc2cc(Oc3ccccc3)ccc2c1O [Compound B, [(4-Hydroxy-7-phenoxy-isoquinoline-3-carbonyl)-amino]-acetic acid]	–	decrease	decrease	decrease	reduced	reduced	reduced
